Here are results for 55 compounds from US20250188079A1, “INHIBITING CYCLIC AMP-RESPONSIVE ELEMENT-BINDING PROTEIN (CREB)” (Forma Therapeutics, Inc., priority 2019, published 2025).

For this assay, the target named is CBP (Homo sapiens (Human), UniProt Q92793). The experiment in a line: HTRF biochemical assay for CBP activity (TR-FRET, bromodomain). In kind it is binding. Particulars: geometric mean, 10-point 3-fold dilution 33 μM to 1.7 nM, read-out: BROMO IC50 TRF TB CBP (μM gmean). A digest of the protocol:
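IC50 derives from a 4-parameter logistic fit of % inhibition, calculated from the 520/490 nm TR-FRET ratio against DMSO and no-enzyme controls. Final compound levels spanned 33 μM to 1.7 nM (10 points, 3-fold), with CBP and peptide ligand in Hepes pH 7.5/GSH/BGG/BSA/Triton buffer, incubated at room temperature for varying times.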

Chain of CBP (Q92793 1085-1192): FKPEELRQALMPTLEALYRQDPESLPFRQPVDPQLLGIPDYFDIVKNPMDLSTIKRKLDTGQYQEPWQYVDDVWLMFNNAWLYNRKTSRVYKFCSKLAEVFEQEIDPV

“(3S)-4-[2-cyclohexyl-8-(methoxycarbonyl)-3H,6H,7H,8H,9H-imidazo[4,5-h]isoquinolin-3-yl]-3-(3-fluoro-5-methoxyphenyl)butanoic acid [Compound 10]”: the concentration for half-maximal inhibition (IC50) (usually the concentration at which inhibition is half-maximal) fell in the range of 0.001 to 0.01 µM.

For the compound `COC(=O)N1CCc2ccc3c(nc([C@H]4CC[C@H](C(=O)O)CC4)n3[C@H](C)C[C@H]3CC[C@H](OC(F)(F)F)CC3)c2C1` [Compound 317], the IC50 is 0.1 to 1 µM.

On to `COC(=O)N1CCc2ccc3c(nc(-c4ccc(CC(=O)O)cc4)n3[C@@H](C)Cc3ccccc3)c2C1` [Compound 78], for which the IC50 was 0.001 to 0.01 µM.

Take `COC(=O)N1CCc2ccc3c(nc([C@H]4CC[C@H](S(N)(=O)=O)CC4)n3[C@H](C)Cc3ccccc3)c2C1` [Compound 301]: the IC50 was 0.1 to 1 µM.

With `COC(=O)N1CCc2ccc3c(nc([C@H]4CC[C@H](C(=O)O)CC4)n3[C@H](C)Cc3cccc(C)c3)c2C1` [Compound 334], the IC50 lay within 0.1 to 1 µM.

Regarding `COC(=O)N1CCc2ccc3c(nc([C@H]4CC[C@H](C(=O)O)CC4)n3[C@H](C)Cc3ccccc3Cl)c2C1` [Compound 295], the IC50 fell in the range of 0.1 to 1 µM.

Consider `COC(=O)N1CCc2ccc3c(nc(C4CCCCC4)n3CC[C@H]3CC[C@@H](C(=O)O)CC3)c2C1` [Compound 87], for which the IC50 lay in the range of 0.001 to 0.01 µM.

For `COC(=O)N1CCc2ccc3c(nc(C4CCCCC4)n3C[C@@H](C(=O)O)C3CCCCC3)c2C1` [Compound 281], the IC50 was in the range of 0.01 to 0.1 µM.

Consider `COC(=O)N1CCc2ccc3c(nc([C@H]4CC[C@H](C(=O)O)CC4)n3[C@@H](C)Cc3ccccn3)c2C1` [Compound 141], for which the IC50 was 0.001 to 0.01 µM.

Take `COC(=O)N1CCc2ccc3c(nc([C@H]4CC[C@H](C(=O)O)CC4)n3[C@H](C)Cn3ncc4ccccc43)c2C1` [Compound 311]: the half-inhibitory concentration (IC50) was 0.1 to 1 µM.

In the case of `COC(=O)N1CCc2cc(C(=O)O)c3c(nc(C4CCCCC4)n3CCc3ccccc3)c2C1` [Compound 181], the concentration for half-maximal inhibition (IC50) was in the range of 0.01 to 0.1 µM.

As to `COC(=O)N1CCc2ccc3c(nc([C@H]4CCC[C@@H](C(=O)O)C4)n3[C@@H](C)Cc3ccccc3)c2C1` (single isomer, unassigned) [Compound 13], the half-inhibitory concentration (IC50) is 0.001 to 0.01 µM.

`COC(=O)N1CCc2ccc3c(nc(C4CCCCC4)n3C[C@H](C(=O)O)c3cccc(F)c3F)c2C1` (single isomer, unassigned) [Compound 26]: the half-inhibitory concentration (IC50) was 0.001 to 0.01 µM.

On to `COC(=O)N1CCc2ccc3c(nc([C@H]4CC[C@H](C(=O)O)CC4)n3[C@H](C)CC3CCOCC3)c2C1` [Compound 265], for which the IC50 was 0.01 to 0.1 µM.

For `COC(=O)N1CCc2ccc3c(nc(C4CCN(S(=O)(=O)NC(C)=O)CC4)n3[C@H](C)Cc3ccccc3)c2C1` [Compound 348], the IC50 fell in the range of 1 to 1000 µM.

For `COC(=O)N1CCc2ccc3c(nc([C@H]4CC[C@H](C(=O)O)CC4)n3[C@@H](C)C[C@]3(C)CC[C@H](OC)CC3)c2C1` [Compound 57], the IC50 fell in the range of 0.001 to 0.01 µM.

`COC(=O)N1CCc2ccc3c(nc(C4CCCCC4)n3C[C@@H](C(=O)O)c3cc(F)ccc3OC)c2C1` (single isomer, unassigned) [Compound 11]: the IC50 fell in the range of 0.001 to 0.01 µM.

For the compound `COC(=O)N1CCc2ccc3c(nc([C@H]4CC[C@H](C(=O)O)CC4)n3[C@H](C)C[C@H]3CC[C@H](OC)CC3)c2C1` [Compound 287], the IC50 is 0.01 to 0.1 µM.

As to `COC(=O)N1CCc2c(Cl)cc3c(nc([C@H]4CC[C@H](C(=O)O)CC4)n3[C@H](C)Cc3ccccc3)c2C1` [Compound 305], the concentration for half-maximal inhibition (IC50) was in the range of 0.1 to 1 µM.

With `COC(=O)N1CCc2ccc3c(nc([C@H]4CC[C@H](C(=O)O)CC4)n3[C@H](C)[C@@H](O)c3ccccc3)c2C1` [Compound 146], the half-inhibitory concentration (IC50) lay in the range of 0.001 to 0.01 µM.

In the case of `COC(=O)N1CCc2ccc3c(nc(C4CCCC4)n3C[C@@H](CC(=O)O)c3ccccc3)c2C1` (single isomer, unassigned) [Compound 34], the half-maximal inhibitory concentration (IC50) fell in the range of 0.001 to 0.01 µM.

`COC(=O)N1CCc2ccc3c(nc(N4CCC[C@@H](C(=O)O)C4)n3C[C@@H](C)c3ccccc3)c2C1` [Compound 165]: the IC50 was in the range of 0.001 to 0.01 µM.

Turning to `COC(=O)N1CCc2ccc3c(nc(C4CCCCC4)n3[C@@H](C)C[C@@H]3CCCC[C@H]3C(=O)O)c2C1` [Compound 210], the half-inhibitory concentration (IC50) is 0.01 to 0.1 µM.

For `COC(=O)N1CCc2ccc3c(nc(C4CCCCC4)n3C[C@H](CC(=O)O)c3ccccc3C)c2C1` [Compound 115], the concentration for half-maximal inhibition (IC50) lay in the range of 0.001 to 0.01 µM.

For the compound `COC(=O)N1CCc2ccc3c(nc(C4CCN(S(C)(=O)=O)CC4)n3[C@H](C)Cc3cccc(C(=O)O)c3)c2C1` [Compound 331], the half-maximal inhibitory concentration (IC50) was in the range of 0.1 to 1 µM.

On to `COC(=O)N1CCc2ccc3c(nc([C@H]4CC[C@H](C(=O)O)CC4)n3[C@@H](C)Cc3cnccn3)c2C1` [Compound 186], for which the half-inhibitory concentration (IC50) lay in the range of 0.01 to 0.1 µM.

Consider “(3R)-4-[2-cyclohexyl-8-(methoxycarbonyl)-3H,6H,7H,8H,9H-imidazo[4,5-h]isoquinolin-3-yl]-3-(3-fluoro-5-methoxyphenyl)butanoic acid [Compound 194]”, for which the IC50 fell in the range of 0.01 to 0.1 µM.

As to `COC(=O)N1CCc2ccc3c(nc(C4CCCCC4)n3C[C@@H](C(=O)O)c3cc(F)c(C)cc3OC)c2C1` (single isomer, unassigned) [Compound 278], the IC50 is 0.01 to 0.1 µM.

For the compound `COC(=O)N1CCc2ccc3c(nc([C@H]4CCC[C@H](C(=O)O)C4)n3[C@H](C)Cc3ccccc3C)c2C1` (single isomer, unassigned) [Compound 163], the half-inhibitory concentration (IC50) is 0.001 to 0.01 µM.

With `COC(=O)N1CCc2ccc3c(nc(C4CCCCC4)n3C[C@](C)(C(=O)O)c3ccccc3)c2C1` [Compound 135], the IC50 fell in the range of 0.001 to 0.01 µM.

Turning to `COC(=O)N1CCc2ccc3c(nc([C@H]4CC[C@H](C(=O)O)CC4)n3[C@H](C)Cc3cccc(F)c3F)c2C1` [Compound 266], the IC50 is 0.01 to 0.1 µM.

Regarding `COC(=O)N1CCc2ccc3c(nc(C4CCN(S(N)(=O)=O)CC4)n3[C@H](C)Cc3ccccc3)c2C1` [Compound 330], the IC50 was 0.1 to 1 µM.

On to `COC(=O)N1CCc2ccc3c(nc(C4CCCCC4)n3C[C@@H](CC(=O)O)c3ccc(F)c(F)c3)c2C1` [Compound 4, (3S)-4-[2-cyclohexyl-8-(methoxycarbonyl)-3H,6H,7H,8H,9H-imidazo[4,5-h]isoquinolin-3-yl]-3-(3,4-difluorophenyl)butanoic acid], for which the IC50 fell in the range of 0.001 to 0.01 µM.

For `COC(=O)N1CCc2ccc3c(nc(C4CCCCC4)n3C[C@H]3CC[C@@H](C(=O)O)CC3)c2C1` [Compound 221], the IC50 fell in the range of 0.01 to 0.1 µM.

For the compound `COC(=O)N1CCc2ccc3c(nc(C45CC(C4)C5)n3C[C@@H](C(=O)O)c3ccccc3)c2C1` [Compound 246], the 50% inhibitory concentration (IC50) was 0.01 to 0.1 µM.

As for `COC(=O)N1CCc2ccc3c(nc([C@H]4CC[C@H](C(=O)O)CC4)n3C[C@@H](OC)c3ccccc3)c2C1` [Compound 214], the half-inhibitory concentration (IC50) was in the range of 0.01 to 0.1 µM.

For the compound `COC(=O)N1CCc2ccc3c(nc(-c4cccc(C(C)(C)C(=O)O)c4)n3[C@H](C)Cn3cc(Cl)cn3)c2C1` [Compound 320], the 50% inhibitory concentration (IC50) fell in the range of 0.1 to 1 µM.

As for `COC(=O)N1CCc2ccc3c(nc(-c4ccc(C(=O)O)cc4)n3[C@@H](C)Cc3ccccc3)c2C1` [Compound 77], the IC50 is 0.001 to 0.01 µM.

Take `COC(=O)N1CCc2ccc3c(nc([C@H]4CC[C@@](C)(C(=O)O)CC4)n3[C@@H](C)Cc3ccccc3)c2C1` [Compound 49]: the IC50 was in the range of 0.001 to 0.01 µM.

As to `COC(=O)N1CCc2ccc3c(nc([C@H]4CC[C@H](C(=O)O)CC4)n3[C@@H](C)Cc3ccc(C)c(F)c3)c2C1` (single isomer, unassigned) [Compound 2], the IC50 was in the range of 0.001 to 0.01 µM.

Turning to `COC(=O)N1CCc2ccc3c(nc(-c4cccc(CC(=O)O)c4)n3[C@@H](C)Cn3cc(Cl)cn3)c2C1` [Compound 113], the half-maximal inhibitory concentration (IC50) lay within 0.001 to 0.01 µM.

`COC(=O)N1CCc2ccc3c(nc([C@H]4CC[C@H](C(=O)O)CC4)n3CCc3ccc(OC(F)F)cc3)c2C1` [Compound 155]: the IC50 lay in the range of 0.001 to 0.01 µM.

For the compound `COC(=O)N1CCc2ccc3c(nc(Cc4cc(O)no4)n3[C@H](C)Cc3ccccc3)c2C1` [Compound 273], the IC50 fell in the range of 0.01 to 0.1 µM.

Turning to `COC(=O)N1CCc2ccc3c(nc([C@H]4CC[C@@H](S(=O)(=O)NC(C)=O)CC4)n3[C@H](C)Cc3ccccc3)c2C1` [Compound 162], the 50% inhibitory concentration (IC50) fell in the range of 0.001 to 0.01 µM.

As for `COC(=O)N1CCc2ccc3c(nc([C@H]4CC[C@H](S(=O)(=O)NC(C)=O)CC4)n3[C@H](C)Cc3ccccc3)c2C1` [Compound 316], the IC50 fell in the range of 0.1 to 1 µM.

`COC(=O)N1CCc2ccc3c(nc(N4CCNCC4)n3[C@@H](C)Cc3ccccc3)c2C1` [Compound 198]: the half-maximal inhibitory concentration (IC50) lay in the range of 0.01 to 0.1 µM.

For `COC(=O)N1CCc2ccc3c(nc(N4CCN(C(C)=O)CC4)n3[C@@H](C)Cc3ccccc3)c2C1` [Compound 324], the half-inhibitory concentration (IC50) lay in the range of 0.1 to 1 µM.

As to `COC(=O)N1CCc2ccc3c(nc([C@H]4CC[C@@H](C(=O)O)CC4)n3CC(NC(C)=O)c3ccccc3)c2C1` (stereo partly shown) [Compound 248], the IC50 was 0.01 to 0.1 µM.

For the compound `COC(=O)N1CCc2ccc3c(nc(N4CCCCC4)n3C[C@@H](CC(=O)O)c3ccccc3)c2C1` [Compound 47], the IC50 lay within 0.001 to 0.01 µM.

Regarding `COC(=O)N1CCc2ccc3c(nc(-c4ccc(C(C)(C)C(=O)O)cc4)n3[C@H](C)Cn3cc(Cl)cn3)c2C1` [Compound 327], the IC50 lay in the range of 0.1 to 1 µM.

Take `COC(=O)N1CCc2ccc3c(nc(C4CCCCC4)n3C[C@@H](CC(=O)O)c3ccccc3C)c2C1` [Compound 98]: the 50% inhibitory concentration (IC50) was 0.001 to 0.01 µM.

For `COC(=O)N1CCc2ccc3c(nc(C4CCCCC4)n3[C@@H](C)Cc3cccc(C(=O)O)c3)c2C1` [Compound 102], the IC50 was in the range of 0.001 to 0.01 µM.

Consider `COC(=O)N1CCc2ccc3c(nc([C@@H]4CCC[C@@H](C(=O)O)C4)n3C[C@@H](C)c3ccc(F)c(F)c3)c2C1` (single isomer, unassigned) [Compound 148], for which the IC50 was in the range of 0.001 to 0.01 µM.

In the case of `COC(=O)N1CCc2ccc3c(nc(-c4ccncc4)n3[C@@H](C)Cc3ccccc3)c2C1` [Compound 109], the IC50 lay in the range of 0.001 to 0.01 µM.

Regarding `COC(=O)N1CCc2ccc3c(nc([C@@H]4CCC[C@@H](C(=O)O)C4)n3[C@@H](C)Cc3ccccc3Cl)c2C1` (single isomer, unassigned) [Compound 20], the IC50 was in the range of 0.001 to 0.01 µM.
